The values that follow come from patent US9758485B2, “Compounds for controlling arthropods” (priority 2013, dated 2017).

Molecules are shown by their SMILES.

Data set [1] can be described thus: logP determination by HPLC on a reversed-phase column (C18), EEC Directive 79/831 Annex V.A8. The format is physicochemical. The following applies: HPLC on reversed-phase column (C18).
The next data set deals with Meloidogyne incognita. Briefly: Meloidogyne incognita test. In kind it is in vivo. The following applies: application rate 20 ppm; formation of galls on lettuce roots after 14 days. The method, then:
Meloidogyne incognita Test
Solvent: 125.0 parts by weight of acetone
To produce an appropriate active ingredient formulation, 1 part by weight of active ingredient is mixed with the stated amount of solvent and the concentrate is diluted with water to the desired concentration.
Vessels are filled with sand, active ingredient solution, an egg/larvae suspension of the southern root-knot nematode (Meloidogyne incognita) and lettuce seeds. The lettuce seeds germinate and the plants develop. The galls develop on the roots.
After 14 days, the nematicidal efficacy in % is determined by the formation of galls. 100% means that no galls were found; 0% means that the number of galls on the treated plants corresponds to the untreated control.

For orientation: log P means the decadic logarithm of the partition coefficient of the neutral form, usually between octanol and water. As to `O=C(NC1CC1)c1cc(-c2cnn(-c3c(Cl)cc(C(F)(F)F)c(F)c3Cl)c2)ccc1Cl` [I-T3-184], the lipophilicity (log P) in data set [1] is recorded as 3.6. Also, the efficacy in the data set with Meloidogyne incognita came out at 90%.

For the compound `N#CC1(NC(=O)c2cc(-c3cnn(-c4c(Cl)cc(C(F)(F)F)c(F)c4Cl)c3)ccc2Cl)CC1` [I-T3-185], the “log P” value in data set [1] was determined as 3.6. The efficacy in the data set on Meloidogyne incognita turned out to be 90%.
